In brackets after ≈: the same amount, converted by molar mass. Read-outs that look alike come from different tables or passages of the source. Where a SMILES comes first, the peptide text is derived from it. [ ]: non-standard residue; d: D form. Nspe = C[C@H](NCC(=O)O)c1ccccc1; NHexGly = CCCCCCNCC(=O)O; Nlys = NCCCCNCC(=O)O
Legend:
M. bovis BCG = conditions: broth microdilution, 10^6 CFU/mL, 7 days, 37°C, OD595 and visual
M. tuberculosis CSU87 = conditions: 7 days, CFU enumeration, three independent experiments
[1] = system: MDR clinical isolate M. tuberculosis CSU87; conditions: broth microdilution, 10^6 CFU/mL, 7 days, 37°C, OD595 and visual

| SMILES | MIC BCG (M. bovis BCG) [µg/mL] | killing of CSU87 (M. tuberculosis CSU87; 2 × MIC (8 mg/L)) [%] | killing of CSU87 (M. tuberculosis CSU87; 4 × MIC (16 mg/L)) [%] | MIC CSU87 [1] [µg/mL] |
| --- | --- | --- | --- | --- |
| CCCCCCNCC(=O)N(CC(=O)N(CCCCN)CC(N)=O)[C@@H](C)c1ccccc1 [BM 1] | 16 to 32 | – | – | – |
| CCCCCCNCC(=O)N(CC(=O)N(CCCCN)CC(=O)N(CCCCCC)CC(=O)N(CC(=O)N(CCCCN)CC(N)=O)[C@@H](C)c1ccccc1)[C@@H](C)c1ccccc1 [BM 2] (H-[NHexGly][Nspe][Nlys][NHexGly][Nspe][Nlys]-NH2) | 2 to 4 | > 99 | 99.9 | 4 (≈ 4.55 µM) |
| CCCCCCNCC(=O)N(CC(=O)N(CCCCN)CC(=O)N(CCCCCC)CC(=O)N(CC(=O)N(CCCCN)CC(=O)N(CCCCCC)CC(=O)N(CC(=O)N(CCCCN)CC(N)=O)[C@@H](C)c1ccccc1)[C@@H](C)c1ccccc1)[C@@H](C)c1ccccc1 [BM 3] (H-[NHexGly][Nspe][Nlys][NHexGly][Nspe][Nlys][NHexGly][Nspe][Nlys]-NH2) | 4 to 8 | – | – | 16 (≈ 12.2 µM) |

Source: paper PMC7089965 (Frontiers in Microbiology, 2020)
